Columns and labels:
[1] = Evaluation of conversion rate to active form in BALB/c mouse plasma (Experimental Example 3); type: in vitro ADME; settings: BALB/c, mouse, 0.2 μmol/L
Procedure: (§1) For Example 1, Example 2, Example 3, Example 4, Example 5, Example 6, Comparative Example 3, Comparative Example 4, Comparative Example 6, Comparative Example 7, Comparative Example 8, Comparative Example 9, Comparative Example 10 and Comparative Example 12, the attrition rate of the test compound and the conversion rate of the test compound to Alvocidib in human plasma and BALB/c mouse plasma were calculated by the following method.
(§2) The test compound was added to human plasma or BALB/c mouse plasma at a concentration of 0.2 μmol/L, and incubated at 37° C. The peak areas of the test compound and Alvocidib in the sample were determined by LC-MS/MS after 0, 30 and 60 minutes for Example 1, Example 2, Example 3, Example 4, Example 5 and Example 6, and after 0, 60 and 120 minutes for Comparative Example 3, Comparative Example 4, Comparative Example 6, Comparative Example 7, Comparative Example 8, Comparative Example 9, Comparative Example 10 and Comparative Example 12, and the attrition rate of the test compound and the conversion rate of the test compound to Alvocidib were calculated by the following formula. Attrition rate of test compound (%):(peak area of test compound in sample/peak area of test compound in sample after 0 minute)×100 Conversion rate to Alvocidib (%):(peak area of Alvocidib in sample/peak area of Alvocidib in reaction solution containing 0.2 μmol/L Alvocidib)×100
(§3) The measurement conditions for LC-MS/MS are as follows. • HPLC: Prominence system (Shimadzu Corporation) • MS/MS: • Example 1, Example 2, Example 3, Example 4, Example 5, Example 6, Comparative Example 8 (mouse), Comparative Example 10 (mouse) and Comparative Example 12 (mouse) • QTRAP5500 (SCIEX) • Comparative Example 6, Comparative Example 7, Comparative Example 8 (human), Comparative Example 9, Comparative Example 10 (human) and Comparative Example 12 (human) • 4000 QTRAP (SCIEX) • column: • other than Example 3 and Example 4 • Cadenza CD-C18, 3 μm, 50×2 mm (Imtakt Corporation) • Example 3 and Example 4 • Kinetex C8, 2.6 μm, 50×2.1 mm (Phenomenex) • column temperature: 40° C. • mobile phase: • A: water containing 0.1% formic acid • B: acetonitrile containing 0.1% formic acid • A/B (min): • Example 1, Example 2, Example 5, Example 6, Comparative Example 8 (mouse), Comparative Example 10 (mouse) and Comparative Example 12 (mouse) • 90/10(0)→40/60(5.0)→10/90(5.1)→10/90(6.5)→90/10(6.6)→90/10(8.0) • Example 3 and Example 4 • 86/14(0)→86/14(3.5)→10/90(5.5)→10/90(6.5)→86/14(6.6)→86/14(9.5) • Comparative Example 6, Comparative Example 7, Comparative Example 8 (human), Comparative Example 9, Comparative Example 10 (human) and Comparative Example 12 (human) • 90/10(0)→10/90(2.5)→10/90(3.5)→90/10(3.6)→90/10(5.0) • flow rate: 0.4 mL/min • detection: ESI (positive mode) • injection: 1 to 5 μL

[2] = Evaluation of conversion rate to active form in buffer solution (Experimental Example 1); type: physicochemical
Summary of the method: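 25 umol/L cpd, 37° C; 50 mM citrate pH 5.0/5.5, 50 mM phosphate pH 6.0/6.5/7.0/7.4. HPLC at 0–3 h: residual rate and Alvocidib production rate.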

[3] = Evaluation of conversion rate to active form in human plasma (Experimental Example 3); type: in vitro ADME; settings: human, 0.2 μmol/L
Procedure: as §1, §2, §3

Question: For `CN1CC[C@H](c2c(O)cc(O)c3c(=O)cc(-c4ccccc4Cl)oc23)[C@H](OC(=O)CN)C1` [Comparative Example 8, reference compound], which “Production rate (%) of Alvocidib” value ([1]; 0 min) is on record?
Answer: 19%

Question: What about the “Residual rate (%) of test compound” value ([1]; 0 min) of the same compound?
Answer: 100%

Question: What about the “Production rate (%) of Alvocidib” value ([1]; 60 min) of the same compound?
Answer: 94%

Question: What about the “Residual rate (%) of test compound” value ([1]; 60 min) of the same compound?
Answer: 14%

Question: And the “Production rate (%) of Alvocidib” value ([1]; 120 min)?
Answer: 107%

Question: And the “Residual rate (%) of test compound” value ([1]; 120 min)?
Answer: 4%

Question: And the “Production rate of Alvocidib” value ([2]; pH5.0, 0 hr)?
Answer: 16.1%

Question: And the Residual rate ([2]; pH5.0, 0 hr)?
Answer: 83.4%

Question: And the “Stability in buffer solution at pH 5” value ([2]; pH 5, 37° C., up to 2 or 3 hours)?
Answer: unstable

Question: What about the “Production rate of Alvocidib” value ([2]; pH5.0, 0.5 hr) of the same compound?
Answer: 17.7%

Question: And the Residual rate ([2]; pH5.0, 0.5 hr)?
Answer: 81.9%

Question: And the “Production rate of Alvocidib” value ([2]; pH5.0, 1 hr)?
Answer: 19.2%

Question: And the Residual rate ([2]; pH5.0, 1 hr)?
Answer: 80.4%

Question: And the “Production rate of Alvocidib” value ([2]; pH5.0, 2 hr)?
Answer: 21.6%

Question: And the Residual rate ([2]; pH5.0, 2 hr)?
Answer: 78.1%

Question: And the “Production rate of Alvocidib” value ([2]; pH5.0, 3 hr)?
Answer: 25.7%

Question: And the Residual rate ([2]; pH5.0, 3 hr)?
Answer: 73.9%

Question: And the “Production rate of Alvocidib” value ([2]; pH5.5, 0 hr)?
Answer: 16.1%

Question: And the Residual rate ([2]; pH5.5, 0 hr)?
Answer: 83.4%

Question: And the “Production rate of Alvocidib” value ([2]; pH5.5, 0.5 hr)?
Answer: 18.8%

Question: And the Residual rate ([2]; pH5.5, 0.5 hr)?
Answer: 80.7%

Question: And the “Production rate of Alvocidib” value ([2]; pH5.5, 1 hr)?
Answer: 21.4%

Question: And the Residual rate ([2]; pH5.5, 1 hr)?
Answer: 78.3%

Question: What about the “Production rate of Alvocidib” value ([2]; pH5.5, 2 hr) of the same compound?
Answer: 26.2%

Question: What about the Residual rate ([2]; pH5.5, 2 hr) of the same compound?
Answer: 73.5%

Question: What about the “Production rate of Alvocidib” value ([2]; pH5.5, 3 hr) of the same compound?
Answer: 32.0%

Question: And the Residual rate ([2]; pH5.5, 3 hr)?
Answer: 67.6%

Question: And the “Production rate of Alvocidib” value ([2]; pH6.0, 0 hr)?
Answer: 16.3%

Question: What about the Residual rate ([2]; pH6.0, 0 hr) of the same compound?
Answer: 83.5%

Question: What about the “Production rate of Alvocidib” value ([2]; pH6.0, 0.5 hr) of the same compound?
Answer: 27.2%

Question: And the Residual rate ([2]; pH6.0, 0.5 hr)?
Answer: 72.6%

Question: And the “Production rate of Alvocidib” value ([2]; pH6.0, 1 hr)?
Answer: 36.3%

Question: What about the Residual rate ([2]; pH6.0, 1 hr) of the same compound?
Answer: 63.5%

Question: And the “Production rate of Alvocidib” value ([2]; pH6.0, 2 hr)?
Answer: 62.9%

Question: And the Residual rate ([2]; pH6.0, 2 hr)?
Answer: 36.7%

Question: What about the “Production rate of Alvocidib” value ([2]; pH6.0, 3 hr) of the same compound?
Answer: 65.4%

Question: And the Residual rate ([2]; pH6.0, 3 hr)?
Answer: 34.5%

Question: What about the “Production rate of Alvocidib” value ([2]; pH6.5, 0 hr) of the same compound?
Answer: 16.5%

Question: And the Residual rate ([2]; pH6.5, 0 hr)?
Answer: 83.3%

Question: What about the “Production rate of Alvocidib” value ([2]; pH6.5, 0.5 hr) of the same compound?
Answer: 33.1%

Question: What about the Residual rate ([2]; pH6.5, 0.5 hr) of the same compound?
Answer: 66.7%

Question: And the “Production rate of Alvocidib” value ([2]; pH6.5, 1 hr)?
Answer: 45.9%

Question: And the Residual rate ([2]; pH6.5, 1 hr)?
Answer: 53.9%

Question: What about the “Production rate of Alvocidib” value ([2]; pH6.5, 2 hr) of the same compound?
Answer: 54.4%

Question: What about the Residual rate ([2]; pH6.5, 2 hr) of the same compound?
Answer: 45.2%

Question: What about the “Production rate of Alvocidib” value ([2]; pH6.5, 3 hr) of the same compound?
Answer: 79.4%

Question: And the Residual rate ([2]; pH6.5, 3 hr)?
Answer: 20.4%

Question: What about the “Production rate of Alvocidib” value ([2]; pH7.0, 0 hr) of the same compound?
Answer: 16.6%

Question: What about the Residual rate ([2]; pH7.0, 0 hr) of the same compound?
Answer: 83.1%

Question: What about the “Production rate of Alvocidib” value ([2]; pH7.0, 0.5 hr) of the same compound?
Answer: 35.4%

Question: And the Residual rate ([2]; pH7.0, 0.5 hr)?
Answer: 64.4%

Question: What about the “Production rate of Alvocidib” value ([2]; pH7.0, 1 hr) of the same compound?
Answer: 49.3%

Question: And the Residual rate ([2]; pH7.0, 1 hr)?
Answer: 50.5%

Question: And the “Production rate of Alvocidib” value ([2]; pH7.0, 2 hr)?
Answer: 67.6%

Question: What about the Residual rate ([2]; pH7.0, 2 hr) of the same compound?
Answer: 32.1%

Question: And the “Production rate of Alvocidib” value ([2]; pH7.0, 3 hr)?
Answer: 83.5%

Question: What about the Residual rate ([2]; pH7.0, 3 hr) of the same compound?
Answer: 16.4%

Question: What about the “Production rate of Alvocidib” value ([2]; pH7.4, 0 hr) of the same compound?
Answer: 16.7%

Question: What about the Residual rate ([2]; pH7.4, 0 hr) of the same compound?
Answer: 83.1%

Question: And the “Production rate of Alvocidib” value ([2]; pH7.4, 0.5 hr)?
Answer: 34.2%

Question: And the Residual rate ([2]; pH7.4, 0.5 hr)?
Answer: 65.6%

Question: And the “Production rate of Alvocidib” value ([2]; pH7.4, 1 hr)?
Answer: 47.4%

Question: And the Residual rate ([2]; pH7.4, 1 hr)?
Answer: 52.4%

Question: And the “Production rate of Alvocidib” value ([2]; pH7.4, 2 hr)?
Answer: 67.0%

Question: And the Residual rate ([2]; pH7.4, 2 hr)?
Answer: 32.7%

Question: And the “Production rate of Alvocidib” value ([2]; pH7.4, 3 hr)?
Answer: 81.4%

Question: And the Residual rate ([2]; pH7.4, 3 hr)?
Answer: 18.5%

Question: What about the “Production rate (%) of Alvocidib” value ([3]; 0 min) of the same compound?
Answer: 4%

Question: And the “Residual rate (%) of test compound” value ([3]; 0 min)?
Answer: 100%

Question: What about the “Production rate (%) of Alvocidib” value ([3]; 60 min) of the same compound?
Answer: 12%

Question: What about the “Residual rate (%) of test compound” value ([3]; 60 min) of the same compound?
Answer: 87%

Question: And the “Production rate (%) of Alvocidib” value ([3]; 120 min)?
Answer: 16%

Question: What about the “Residual rate (%) of test compound” value ([3]; 120 min) of the same compound?
Answer: 94%

Source: US12617779B2, “Self degradation-type CDK9 inhibitor prodrug and liposome encapsulating same” (Sumitomo Pharma Co., Ltd., priority 2021, dated 2026)
